The assay addresses human recombinant TPK1 (Homo sapiens, UniProt P49841). The assay is described as follows: Inhibitory activity against P-GS1 phosphorylation by TPK1 (Kinase Glo luminescence). Format: biochemical. The settings on record: 7.5 μM P-GS1, 10 μM ATP, 25° C. for 16 hours, Kinase Glo Reagent luminescent signal. The gist of the method: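 Human recombinant TPK1 phosphorylated 7.5 μM P-GS1 with 10 μM ATP in 100 mM HEPES-NaOH pH 7.2 with Mg, EGTA, DTT, Tween 20 and 1% DMSO final, for 16 h at 25° C. Remaining ATP was read by Kinase Glo luminescence. IC50 was normalised to no-enzyme (0%) and no-compound (100%) controls.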
Sequence of human recombinant TPK1 (P49841 whole entry): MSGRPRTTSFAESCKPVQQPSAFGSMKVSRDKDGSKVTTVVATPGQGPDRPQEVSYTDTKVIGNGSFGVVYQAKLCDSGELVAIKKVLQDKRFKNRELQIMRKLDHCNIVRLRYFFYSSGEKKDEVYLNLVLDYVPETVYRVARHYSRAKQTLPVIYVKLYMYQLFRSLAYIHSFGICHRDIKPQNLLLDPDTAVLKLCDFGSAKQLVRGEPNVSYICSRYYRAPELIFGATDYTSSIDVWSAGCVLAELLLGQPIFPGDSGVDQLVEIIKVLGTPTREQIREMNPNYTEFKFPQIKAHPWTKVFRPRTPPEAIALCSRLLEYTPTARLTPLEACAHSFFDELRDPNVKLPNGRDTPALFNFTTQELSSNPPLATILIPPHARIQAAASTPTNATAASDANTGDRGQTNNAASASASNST
As usually defined, the IC50 is the concentration that gives 50% inhibition. Take `COc1ccccc1C1CCN(c2nc(-c3ccncc3F)cc(=O)n2C)CCO1` (stereo not drawn) [Compound A094, 2-[7-(2-methoxyphenyl)-1,4-oxazepan-4-yl]-6-(3-fluoropyridin-4-yl)-3-methylpyrimidin-4(3H)-one]: the concentration for half-maximal inhibition (IC50) came out at 10.3 nM.
Then `Cn1c(N2CCOC(c3ccc(-c4ncno4)cc3)CC2)nc(-c2ccncn2)cc1=O` (single isomer, unassigned; (-)) [Compound A116, (−)-2-[7-[4-(1,2,4-oxadiazol-5-yl)-phenyl]-1,4-oxazepan-4-yl]-3-methyl-6-(pyrimidin-4-yl)pyrimidin-4(3H)-one], with 48 nM; and `Cn1c(N2CCCO[C@@H](c3cccc(C#N)c3)C2)nc(-c2ccncc2)cc1=O` [Compound A046, (S)-2-[2-(3-cyanophenyl)-1,4-oxazepan-4-yl]-3-methyl-6-(pyridin-4-yl)pyrimidin-4(3H)-one], with 61.5 nM; and `Cn1c(N2CCCO[C@H](c3cccc(C(N)=O)c3)C2)nc(-c2ccncc2F)cc1=O` [Compound A029], with 18.8 nM.
With `Cn1c(N2CCOC[C@@H](c3ccc(C#N)cc3)C2)nc(-c2ccncn2)cc1=O` [Compound A076, (S)-2-[6-(4-cyanoophenyl)-1,4-oxazepan-4-yl]-3-methyl-6-(pyrimidin-4-yl)pyrimidin-4(3H)-one], the 50% inhibitory concentration (IC50) is 3.1 nM.
To `CC1CCOCCN1c1nc(-c2ccncc2F)cc(=O)n1C` (stereo not drawn) [Compound A067, 6-(3-fluoropyridin-4-yl)-3-methyl-2-(5-methyl-1,4-oxazepan-4-yl)pyrimidin-4(3H)-one] belongs 9.7 nM.
Then `Cn1c(N2CCCO[C@@H](c3ccc(C(N)=O)cc3)C2)nc(-c2ccncc2F)cc1=O` [Compound A007, (S)-2-[2-(4-aminocarbonylphenyl)-1,4-oxazepan-4-yl]-6-(3-fluoropyridin-4-yl)-3-methylpyrimidin-4(3H)-one], with 3.5 nM; and `Cn1c(N2CCOC(c3ccc(F)cc3)CC2)nc(-c2ccncc2)cc1=O` (stereo not drawn) [Compound A123, 2-[7-(4-fluorophenyl)-1,4-oxazepan-4-yl]-3-methyl-6-(pyridin-4-yl)pyrimidin-4(3H)-one], with 153 nM; and `COc1cccc(C2CCN(c3nc(-c4ccncc4F)cc(=O)n3C)CCO2)c1` (stereo not drawn) [Compound A093, 2-[7-(3-methoxyphenyl)-1,4-oxazepan-4-yl]-6-(3-fluoropyridin-4-yl)-3-methylpyrimidin-4(3H)-one], with 9.65 nM.
Take `Cn1c(N2CCCO[C@@H](c3ccc(F)cc3)C2)nc(-c2ccncn2)cc1=O` [Compound A092, (S)-2-[2-(4-fluorophenyl)-1,4-oxazepan-4-yl]-3-methyl-6-(pyrimidin-4-yl)pyrimidin-4(3H)-one]: the half-inhibitory concentration (IC50) amounted to 8.3 nM.
Then `CC1COCCN(c2nc(-c3ccncc3)cc(=O)n2C)C1` (stereo not drawn) [Compound A088, 2-(6-methyl-1,4-oxazepan-4-yl)-3-methyl-6-(pyridin-4-yl)pyrimidin-4(3H)-one], with 176 nM; and `Cn1c(N2CCOC(c3ccc(-c4ncon4)cc3)CC2)nc(-c2ccncc2F)cc1=O` (single isomer, unassigned; (-)) [Compound A104, (−)-2-[7-[4-(1,2,4-oxadiazol-3-yl)-phenyl]-1,4-oxazepan-4-yl]-6-(3-fluoropyridin-4-yl)-3-methylpyrimidin-4(3H)-one], with 17.2 nM; and `Cn1c(N2CCCO[C@@H](c3cccc(C(N)=O)c3)C2)nc(-c2ccncc2)cc1=O` [Compound A033, (S)-2-[2-(3-aminocarbonylphenyl)-1,4-oxazepan-4-yl]-3-methyl-6-(pyridin-4-yl)pyrimidin-4(3H)-one], with 23.4 nM.
`Cn1c(N2CCOC(c3ccc(-c4ncno4)cc3)CC2)nc(-c2ccncn2)cc1=O` (single isomer, unassigned; (+)) [Compound A107, (+)-2-[7-[4-(1,2,4-oxadiazol-5-yl)-phenyl]-1,4-oxazepan-4-yl]-3-methyl-6-(pyrimidin-4-yl)pyrimidin-4(3H)-one]: the concentration for half-maximal inhibition (IC50) is 23 nM.
Consider `Cn1c(N2CCCO[C@H](c3cccc(Br)c3)C2)nc(-c2ccncc2)cc1=O` [Compound A023, (R)-2-[2-(3-bromophenyl)-1,4-oxazepan-4-yl]-3-methyl-6-(pyridin-4-yl)pyrimidin-4(3H)-one], for which the IC50 stood at 12.7 nM.
Then `CCC1CCOCCN1c1nc(-c2ccncc2F)cc(=O)n1C` (stereo not drawn) [Compound A072, 6-(3-fluoropyridin-4-yl)-3-methyl-2-(5-ethyl-1,4-oxazepan-4-yl)pyrimidin-4(3H)-one], with 65 nM; and `CC1CN(c2nc(-c3ccncc3)cc(=O)n2C)CCCO1` (stereo not drawn) [Compound A061, 2-(2-methyl-1,4-oxazepan-4-yl)-3-methyl-6-(pyridin-4-yl)pyrimidin-4(3H)-one], with 446 nM.
On to `Cc1nc(-c2cccc([C@H]3CN(c4nc(-c5ccncc5)cc(=O)n4C)CCCO3)c2)no1` [Compound A042, (S)-2-[2-[3-(5-methyl-1,2,4-oxadiazol-3-yl)-phenyl]-1,4-oxazepan-4-yl]-3-methyl-6-(pyridin-4-yl)pyrimidin-4(3H)-one], for which the IC50 is 44.6 nM.
To `Cn1c(N2CCOC(c3ccc(-c4ncon4)cc3)CC2)nc(-c2ccncn2)cc1=O` (single isomer, unassigned; (+)) [Compound A099, (+)-2-[7-[4-(1,2,4-oxadiazol-3-yl)-phenyl]-1,4-oxazepan-4-yl]-3-methyl-6-(pyrimidin-4-yl)pyrimidin-4(3H)-one] belongs 14.7 nM.
To `Cc1noc(-c2ccc([C@@H]3CN(c4nc(-c5ccncc5F)cc(=O)n4C)CCCO3)cc2)n1` [Compound A053, (R)-2-[2-[4-(3-methyl-1,2,4-oxadiazol-5-yl)-phenyl]-1,4-oxazepan-4-yl]-6-(3-fluoropyridin-4-yl)-3-methylpyrimidin-4(3H)-one] belongs 100 nM; to `Cn1c(N2CCCO[C@H](c3cccc(Br)c3)C2)nc(-c2ccncn2)cc1=O` [Compound A043, (R)-2-[2-(3-bromophenyl)-1,4-oxazepan-4-yl]-3-methyl-6-(pyrimidin-4-yl)pyrimidin-4(3H)-one], 51 nM.
